# Measurements reported in paper PMC10498667 (Chemical Science, 2023).
# Tests used:
# Aβ42 [1] = target: T1, Aβ42 (Homo sapiens, UniProt P05067); test: ITC binding of 6 with Aβ42
# T1 construct: purchased Peptide Institute, Inc. (Osaka, Japan)
# Protocol: Distinct reactivities of 6 with metal-free Aβ and metal–Aβ were supported by various biophysical approaches. […] In the absence of Aβ, an increase or decrease in the absorption of the peaks at ca. 265, 300, 340, and 410 nm was monitored for 24 h (Fig. S18 ^†), which could be resulted from the oxidation of 6 in the presence of O2.[69] These spectral changes were accelerated upon incubation with Aβ, indicative of its impact on the oxidative modification of 6. Such transformation of 6 was also indicated in the presence of Cu(II) or Zn(II) with and without Aβ. To probe the interaction of 6 with Aβ, their binding properties were analyzed by isothermal titration calorimetry (ITC). For the association between 6 and Aβ, we recorded the heat change upon constant titration of the flavonoid into the solution of Aβ, where the dilution heat was also measured to avoid the heat change induced by its addition into the buffered solution. […] Thus, 6 can bind to Aβ with a micromolar binding affinity. […]
# ITC. The solutions of Ab and 6 were subjected to degassing under vacuum for 3 min prior to loading into the instrument. […] […] The initial delay and the reference power were 60 s and 10 µcal/s, respectively. Dilution heat of 6 only was also measured under the same experimental conditions.
# The ITC thermogram and binding isotherm were shown after the subtraction of the dilution heat.
# The binding isotherm after baseline correction was fitted to the one-set-of-sites binding model using the MicroCal Origin software (version 7.0).
# Expression and Purification of 15N-labeled Recombinant Ab42. 15N-labeled recombinant Ab42 was expressed in E. coli and purified as previously reported.27 Briefly, the DNA sequence coding the human Ab42 peptide was artificially constructed using codons preferred by E. coli with an extra Met residue at the N-terminal of the peptide. The DNA construct was inserted into pAED4 vector28 and the E. coli BL21 (DE3) pLysS strain (Novagen, Inc., Madison, WI, USA) was utilized in the protein expression. Transformed cells were incubated in LB media containing ampicillin and chloramphenicol until the cultures reach 3.5 McFarland turbidity. Cells were then harvested by centrifugation and the cell pellets were resuspended in M9 minimal media containing isotopically labeled 1 g/L 15N ammonium chloride, and induced by addition of 1 mM IPTG for 4 h. The peptide formed inclusion bodies in the bacterial cells. The purified inclusion bodies were dissolved in 20 mM NaOH and the peptide was further purified by repeated cycles of amyloid growth at low pH
# Aβ42 [2] = target: T1, Aβ42; test: ESI-MS and ESI-MS2 of Aβ42 treated with 6; settings: 6 200 μM, 3 h
# Excerpt: To identify the modifications of Aβ in both the absence and presence of Cu(II) upon treatment of 6, we carried out the studies employing electrospray ionization mass spectrometry (ESI-MS). In the sample containing metal-free Aβ42 and 6, the addition of +16 Da into the +3-charged Aβ42 monomer, assigned to be the oxidized monomeric Aβ42, was detected (Fig. 7a), while such oxidation was not observed under anaerobic conditions (Fig. S20 ^†). To determine the oxidized amino acid residues in Aβ42, the b fragments generated by collision-induced dissociation were analyzed by tandem MS (ESI-MS^2). As illustrated in Fig. 7b and S21a, ^† the Met35 residue was measured to be the oxidation site in the singly oxidized Aβ42. […] Similar to metal-free Aβ42, the oxidation of Aβ40 at the Met35 residue was monitored by incubation with 6 (Fig. S22a, b and S23a ^†). […]
# 2D 1H−15N SOFAST-HMQC NMR Experiments. […] Experimental data were processed with NMRpipe29 and Sparky 3.115.30 The 1H and 15N assignments of 15N-labeled Ab were determined based on the previous results.21,31 The chemical shift perturbation was calculated following the equation (eq 4).32 Note that DdH and DdN represent the alterations in the chemical shifts of 1H and 15N of 15N-labeled Ab, respectively. […]
# [3] = Solubility in EtOH (TEAC conditions); assay type: physicochemical; settings: under TEAC experimental conditions
# T1 sequence (P05067 672-713 limits assumed): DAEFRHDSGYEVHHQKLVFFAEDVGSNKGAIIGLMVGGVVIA
structure (smiles),measurement,setting,value
"O=c1c(-c2ccc(O)c(O)c2)coc2cc(O)c(O)c(O)c12 [compound 6, 3-(3,4-dihydroxyphenyl)-5,6,7-trihydroxy-4H-chromen-4-one]",Kd,"Aβ42 [1]; one-site model, 10 °C, read-out: Binding affinity",~19.5 µM
same,TΔS,"Aβ42 [1]; pH 7.4, 10 °C",5.6 (±0.1) kcal mol^−1
same,ΔG,"Aβ42 [1]; pH 7.4, 10 °C",−6.1 (±0.1) kcal mol^−1
same,ΔH,"Aβ42 [1]; pH 7.4, 10 °C",−0.5 (±0.1) kcal mol^−1
same,plausible oxidation sites in singly oxidized Aβ,"Aβ42 [2]; Cu(II)–Aβ42, Cu(II) 100 μM","His13, His14, and Met35"
same,oxidation site in singly oxidized Aβ,"Aβ42 [2]; metal-free Aβ42 100 μM, aerobic",Met35
"O=c1cc(-c2ccccc2)oc2cc(O)cc(O)c12 [compound 1, chrysin]",solubility in ethanol (EtOH),[3],limited solubility
